Source: patent US12227495B2, “Herbicidal compounds” (SYNGENTA CROP PROTECTION AG, priority 2018, dated 2025)

Tests used:
Format in all cases: in vivo
Conditions in all cases: evaluated after 13 days
[1] = test system: Amaranthus retoflexus (AMARE); assay: Post-emergence herbicide test, glasshouse, percentage damage
Method: (§1) Seeds of a variety of test species are sown in standard soil in pots (Lolium perenne (LOLPE), Solanum nigrum (SOLNI), Amaranthus retoflexus (AMARE), Setaria faberi (SETFA), Echinochloa crus-galli (ECHCG), Ipomoea hederacea (IPOHE)). After cultivation for one day (pre-emergence) or after 8 days cultivation (post-emergence) under controlled conditions in a glasshouse (at 24/16° C., day/night; 14 hours light; 65% humidity), the plants are sprayed with an aqueous spray solution derived from the formulation of the technical active ingredient in acetone/water (50:50) solution containing 0.5% Tween 20 (polyoxyethelyene sorbitan monolaurate, CAS RN 9005-64-5). Compounds are applied at 500 g/ha unless otherwise stated. The test plants are then grown in a glasshouse under controlled conditions in a glasshouse (at 24/16° C., day/night; 14 hours light; 65% humidity) and watered twice daily. After 13 days for pre and post-emergence, the test is evaluated for the percentage damage caused to the plant. The biological activities are shown in the following table on a five point scale (5=81-100%; 4=61-80%; 3=41-60%; 2=21-40%; 1=0-20%).

[2] = test system: Echinochloa crus-galli (ECHCG); assay: as above
Method: as §1

[3] = test system: Ipomoea hederacea (IPOHE); assay: as above
Method: as §1

[4] = test system: Lolium perenne (LOLPE); assay: as above
Method: as §1

[5] = test system: Setaria faberi (SETFA); assay: as above
Method: as §1

[6] = test system: Solanum nigrum (SOLNI); assay: as above
Method: as §1

[7] = test system: Amaranthus retoflexus (AMARE); assay: Pre-emergence herbicide test, glasshouse, percentage damage
Method: as §1

[8] = test system: Echinochloa crus-galli (ECHCG); assay: as above
Method: as §1

[9] = test system: Ipomoea hederacea (IPOHE); assay: as above
Method: as §1

[10] = test system: Lolium perenne (LOLPE); assay: as above
Method: as §1

[11] = test system: Setaria faberi (SETFA); assay: as above
Method: as §1

[12] = test system: Solanum nigrum (SOLNI); assay: as above
Method: as §1

Fc1cnc(Oc2cccc(Br)c2-c2cc(C(F)F)no2)c(F)c1 [Compound A101]
percentage damage caused to the plant, AMARE ([1]; 1000 g/ha): 5 (5=81-100%)
percentage damage caused to the plant, ECHCG ([2]; 1000 g/ha): 4 (4=61-80%)
percentage damage caused to the plant, IPOHE ([3]; 1000 g/ha): 5 (5=81-100%)
percentage damage caused to the plant, LOLPE ([4]; 1000 g/ha): 4 (4=61-80%)
percentage damage caused to the plant, SETFA ([5]; 1000 g/ha): 5 (5=81-100%)
percentage damage caused to the plant, SOLNI ([6]; 1000 g/ha): 5 (5=81-100%)
Pre-emergence Test AMARE percentage damage (five point scale) ([7]; rate 1000 g/ha): 5 (5=81-100%)
Pre-emergence Test ECHCG percentage damage (five point scale) ([8]; rate 1000 g/ha): 5 (5=81-100%)
Pre-emergence Test IPOHE percentage damage (five point scale) ([9]; rate 1000 g/ha): 5 (5=81-100%)
Pre-emergence Test LOLPE percentage damage (five point scale) ([10]; rate 1000 g/ha): 5 (5=81-100%)
Pre-emergence Test SETFA percentage damage (five point scale) ([11]; rate 1000 g/ha): 5 (5=81-100%)
Pre-emergence Test SOLNI percentage damage (five point scale) ([12]; rate 1000 g/ha): 4 (4=61-80%)

N#Cc1ccc(Oc2ccccc2-n2cc(C(F)(F)F)cn2)nc1 [Compound A19]
percentage damage caused to the plant, AMARE ([1]; 1000 g/ha): 5 (5=81-100%)
percentage damage caused to the plant, ECHCG ([2]; 1000 g/ha): 5 (5=81-100%)
percentage damage caused to the plant, IPOHE ([3]; 1000 g/ha): 5 (5=81-100%)
percentage damage caused to the plant, LOLPE ([4]; 1000 g/ha): 5 (5=81-100%)
percentage damage caused to the plant, SETFA ([5]; 1000 g/ha): 5 (5=81-100%)
percentage damage caused to the plant, SOLNI ([6]; 1000 g/ha): 5 (5=81-100%)
Pre-emergence Test AMARE percentage damage (five point scale) ([7]; rate 1000 g/ha): 5 (5=81-100%)
Pre-emergence Test ECHCG percentage damage (five point scale) ([8]; rate 1000 g/ha): 5 (5=81-100%)
Pre-emergence Test IPOHE percentage damage (five point scale) ([9]; rate 1000 g/ha): 5 (5=81-100%)
Pre-emergence Test LOLPE percentage damage (five point scale) ([10]; rate 1000 g/ha): 5 (5=81-100%)
Pre-emergence Test SETFA percentage damage (five point scale) ([11]; rate 1000 g/ha): 5 (5=81-100%)
Pre-emergence Test SOLNI percentage damage (five point scale) ([12]; rate 1000 g/ha): 5 (5=81-100%)

N#Cc1cccc(Oc2ccc(Cl)cn2)c1-c1cc(C(F)F)no1 [Compound A161]
percentage damage caused to the plant, AMARE ([1]; 1000 g/ha): 5 (5=81-100%)
percentage damage caused to the plant, ECHCG ([2]; 1000 g/ha): 5 (5=81-100%)
percentage damage caused to the plant, IPOHE ([3]; 1000 g/ha): 5 (5=81-100%)
percentage damage caused to the plant, LOLPE ([4]; 1000 g/ha): 5 (5=81-100%)
percentage damage caused to the plant, SETFA ([5]; 1000 g/ha): 5 (5=81-100%)
percentage damage caused to the plant, SOLNI ([6]; 1000 g/ha): 5 (5=81-100%)
Pre-emergence Test AMARE percentage damage (five point scale) ([7]; rate 1000 g/ha): 5 (5=81-100%)
Pre-emergence Test ECHCG percentage damage (five point scale) ([8]; rate 1000 g/ha): 5 (5=81-100%)
Pre-emergence Test IPOHE percentage damage (five point scale) ([9]; rate 1000 g/ha): 5 (5=81-100%)
Pre-emergence Test LOLPE percentage damage (five point scale) ([10]; rate 1000 g/ha): 5 (5=81-100%)
Pre-emergence Test SETFA percentage damage (five point scale) ([11]; rate 1000 g/ha): 5 (5=81-100%)
Pre-emergence Test SOLNI percentage damage (five point scale) ([12]; rate 1000 g/ha): 4 (4=61-80%)

Fc1cc(Cl)cnc1Oc1ccccc1-n1cc(Br)cn1 [Compound A27]
percentage damage caused to the plant, AMARE ([1]; 250 g/ha): 4 (4=61-80%)
percentage damage caused to the plant, ECHCG ([2]; 250 g/ha): 5 (5=81-100%)
percentage damage caused to the plant, IPOHE ([3]; 250 g/ha): 2 (2=21-40%)
percentage damage caused to the plant, LOLPE ([4]; 250 g/ha): 2 (2=21-40%)
percentage damage caused to the plant, SETFA ([5]; 250 g/ha): 5 (5=81-100%)
percentage damage caused to the plant, SOLNI ([6]; 250 g/ha): 5 (5=81-100%)
Pre-emergence Test AMARE percentage damage (five point scale) ([7]; rate 250 g/ha): 5 (5=81-100%)
Pre-emergence Test ECHCG percentage damage (five point scale) ([8]; rate 250 g/ha): 5 (5=81-100%)
Pre-emergence Test IPOHE percentage damage (five point scale) ([9]; rate 250 g/ha): 1 (1=0-20%)
Pre-emergence Test LOLPE percentage damage (five point scale) ([10]; rate 250 g/ha): 3 (3=41-60%)
Pre-emergence Test SETFA percentage damage (five point scale) ([11]; rate 250 g/ha): 4 (4=61-80%)
Pre-emergence Test SOLNI percentage damage (five point scale) ([12]; rate 250 g/ha): 5 (5=81-100%)

N#Cc1cccnc1Oc1cccc(Br)c1-c1cc(C(F)F)no1 [Compound A107]
percentage damage caused to the plant, AMARE ([1]; 1000 g/ha): 5 (5=81-100%)
percentage damage caused to the plant, ECHCG ([2]; 1000 g/ha): 4 (4=61-80%)
percentage damage caused to the plant, IPOHE ([3]; 1000 g/ha): 4 (4=61-80%)
percentage damage caused to the plant, LOLPE ([4]; 1000 g/ha): 3 (3=41-60%)
percentage damage caused to the plant, SETFA ([5]; 1000 g/ha): 5 (5=81-100%)
percentage damage caused to the plant, SOLNI ([6]; 1000 g/ha): 5 (5=81-100%)
Pre-emergence Test AMARE percentage damage (five point scale) ([7]; rate 1000 g/ha): 5 (5=81-100%)
Pre-emergence Test ECHCG percentage damage (five point scale) ([8]; rate 1000 g/ha): 4 (4=61-80%)
Pre-emergence Test IPOHE percentage damage (five point scale) ([9]; rate 1000 g/ha): 3 (3=41-60%)
Pre-emergence Test LOLPE percentage damage (five point scale) ([10]; rate 1000 g/ha): 2 (2=21-40%)
Pre-emergence Test SETFA percentage damage (five point scale) ([11]; rate 1000 g/ha): 5 (5=81-100%)
Pre-emergence Test SOLNI percentage damage (five point scale) ([12]; rate 1000 g/ha): 2 (2=21-40%)

Fc1cc(C(F)(F)F)cnc1Oc1cccc(Br)c1-c1cc(C(F)F)no1 [Compound A104]
percentage damage caused to the plant, AMARE ([1]; 1000 g/ha): 4 (4=61-80%)
percentage damage caused to the plant, ECHCG ([2]; 1000 g/ha): 4 (4=61-80%)
percentage damage caused to the plant, IPOHE ([3]; 1000 g/ha): 4 (4=61-80%)
percentage damage caused to the plant, LOLPE ([4]; 1000 g/ha): 3 (3=41-60%)
percentage damage caused to the plant, SETFA ([5]; 1000 g/ha): 4 (4=61-80%)
percentage damage caused to the plant, SOLNI ([6]; 1000 g/ha): 5 (5=81-100%)
Pre-emergence Test AMARE percentage damage (five point scale) ([7]; rate 1000 g/ha): 4 (4=61-80%)
Pre-emergence Test ECHCG percentage damage (five point scale) ([8]; rate 1000 g/ha): 4 (4=61-80%)
Pre-emergence Test IPOHE percentage damage (five point scale) ([9]; rate 1000 g/ha): 4 (4=61-80%)
Pre-emergence Test LOLPE percentage damage (five point scale) ([10]; rate 1000 g/ha): 4 (4=61-80%)
Pre-emergence Test SETFA percentage damage (five point scale) ([11]; rate 1000 g/ha): 5 (5=81-100%)
Pre-emergence Test SOLNI percentage damage (five point scale) ([12]; rate 1000 g/ha): 2 (2=21-40%)

Fc1cc(Cl)cnc1Oc1cccc(F)c1-c1cc(C(F)F)no1 [Compound A1, 5-[2-[(5-CHLORO-3-FLUORO-2-PYRIDYL)OXY]-6-FLUORO-PHENYL]-3-(DIFLUOROMETHYL)ISOXAZOLE]
percentage damage caused to the plant, AMARE ([1]; 500 g/ha): 5 (5=81-100%)
percentage damage caused to the plant, ECHCG ([2]; 500 g/ha): 5 (5=81-100%)
percentage damage caused to the plant, IPOHE ([3]; 500 g/ha): 5 (5=81-100%)
percentage damage caused to the plant, LOLPE ([4]; 500 g/ha): 5 (5=81-100%)
percentage damage caused to the plant, SETFA ([5]; 500 g/ha): 5 (5=81-100%)
percentage damage caused to the plant, SOLNI ([6]; 500 g/ha): 5 (5=81-100%)
Pre-emergence Test AMARE percentage damage (five point scale) ([7]; rate 500 g/ha): 5 (5=81-100%)
Pre-emergence Test ECHCG percentage damage (five point scale) ([8]; rate 500 g/ha): 5 (5=81-100%)
Pre-emergence Test IPOHE percentage damage (five point scale) ([9]; rate 500 g/ha): 5 (5=81-100%)
Pre-emergence Test LOLPE percentage damage (five point scale) ([10]; rate 500 g/ha): 5 (5=81-100%)
Pre-emergence Test SETFA percentage damage (five point scale) ([11]; rate 500 g/ha): 5 (5=81-100%)
Pre-emergence Test SOLNI percentage damage (five point scale) ([12]; rate 500 g/ha): 5 (5=81-100%)

FC(F)c1cc(-c2c(Br)cccc2Oc2cc(Cl)ccn2)on1 [Compound A86]
percentage damage caused to the plant, AMARE ([1]; 1000 g/ha): 4 (4=61-80%)
percentage damage caused to the plant, ECHCG ([2]; 1000 g/ha): 4 (4=61-80%)
percentage damage caused to the plant, IPOHE ([3]; 1000 g/ha): 4 (4=61-80%)
percentage damage caused to the plant, LOLPE ([4]; 1000 g/ha): 4 (4=61-80%)
percentage damage caused to the plant, SETFA ([5]; 1000 g/ha): 4 (4=61-80%)
percentage damage caused to the plant, SOLNI ([6]; 1000 g/ha): 4 (4=61-80%)
Pre-emergence Test AMARE percentage damage (five point scale) ([7]; rate 1000 g/ha): 4 (4=61-80%)
Pre-emergence Test ECHCG percentage damage (five point scale) ([8]; rate 1000 g/ha): 5 (5=81-100%)
Pre-emergence Test IPOHE percentage damage (five point scale) ([9]; rate 1000 g/ha): 1 (1=0-20%)
Pre-emergence Test LOLPE percentage damage (five point scale) ([10]; rate 1000 g/ha): 4 (4=61-80%)
Pre-emergence Test SETFA percentage damage (five point scale) ([11]; rate 1000 g/ha): 5 (5=81-100%)
Pre-emergence Test SOLNI percentage damage (five point scale) ([12]; rate 1000 g/ha): 2 (2=21-40%)
